For data set [1] the following is noted: human gut metagenome, 24 h, 2 µM.
For data set [2] the following is noted: human gut metagenome, 24 h, 2 µM. The source holds these as a separate data set.
Data set [3] in a line: The drug is tested on Z-016 corresponding to mouse gut metagenome with ENA study accession number: PRJEB37062 and ENA sample accession number: ERS12561815 for biotransformation under anaerobic condition. The drug concentrations were measured over 9 timepoints collected between 0 and 24 hours of incubation by liquid-chromatography-coupled mass spectrometry (LC–MS). As to conditions: 2 µM.

A short description of data set [4]: The drug is tested on Z-005 corresponding to metagenome with ENA study accession number: PRJEB37062 and ENA sample accession number: ERS12561805 for biotransformation under anaerobic condition. The drug concentrations were measured over 9 timepoints collected between 0 and 24 hours of incubation by liquid-chromatography-coupled mass spectrometry (LC–MS). The note with it: 2 µM.

Data set [5] can be described thus: The drug is tested on Z-004 corresponding to metagenome with ENA study accession number: PRJEB37062 and ENA sample accession number: ERS12561804 for biotransformation under anaerobic condition. The drug concentrations were measured over 9 timepoints collected between 0 and 24 hours of incubation by liquid-chromatography-coupled mass spectrometry (LC–MS). As to conditions: 2 µM.

For data set [6] the following is noted: human gut metagenome, 24 h, 2 µM. This is another data set of the same source.
For data set [7] the following is noted: human gut metagenome, 24 h, 2 µM. This is another data set of the same source.
For data set [8] the following is noted: human gut metagenome, 24 h, 2 µM. The source holds these as a separate data set.
The nature of data set [9]: The drug is tested on WLS-007 corresponding to human gut metagenome with ENA study accession number: PRJEB37062 and ENA sample accession number: ERS12561742 for biotransformation under anaerobic condition. The drug concentrations were measured over 9 timepoints collected between 0 and 24 hours of incubation by liquid-chromatography-coupled mass spectrometry (LC–MS). The note with it: 2 µM.

Data set [10] is described as follows: The drug is tested on Z-027 corresponding to metagenome with ENA study accession number: PRJEB37062 and ENA sample accession number: ERS12561826 for biotransformation under anaerobic condition. The drug concentrations were measured over 9 timepoints collected between 0 and 24 hours of incubation by liquid-chromatography-coupled mass spectrometry (LC–MS). As to conditions: 2 µM.

For data set [11] the following is noted: human gut metagenome, 24 h, 2 µM. This is another data set of the same source.
The nature of data set [12]: The drug is tested on Z-021 corresponding to metagenome with ENA study accession number: PRJEB37062 and ENA sample accession number: ERS12561820 for biotransformation under anaerobic condition. The drug concentrations were measured over 9 timepoints collected between 0 and 24 hours of incubation by liquid-chromatography-coupled mass spectrometry (LC–MS). As to conditions: 2 µM.

Data set [13] is described as follows: The drug is tested on WLS-350 corresponding to human gut metagenome with ENA study accession number: PRJEB37062 and ENA sample accession number: ERS12561789 for biotransformation under anaerobic condition. The drug concentrations were measured over 9 timepoints collected between 0 and 24 hours of incubation by liquid-chromatography-coupled mass spectrometry (LC–MS). The note with it: 2 µM.

The conditions of data set [14]: human gut metagenome, 24 h, 2 µM. This is another data set of the same source.
The conditions of data set [15]: human gut metagenome, 24 h, 2 µM. The source holds these as a separate data set.
Data set [16] is described as follows: The drug is tested on WLS-027 corresponding to human gut metagenome with ENA study accession number: PRJEB37062 and ENA sample accession number: ERS12561744 for biotransformation under anaerobic condition. The drug concentrations were measured over 9 timepoints collected between 0 and 24 hours of incubation by liquid-chromatography-coupled mass spectrometry (LC–MS). As to conditions: 2 µM.

For data set [17] the following is noted: human gut metagenome, 24 h, 2 µM. The source holds these as a separate data set.
Data set [18] is described as follows: The drug is tested on WLS-082 corresponding to human gut metagenome with ENA study accession number: PRJEB37062 and ENA sample accession number: ERS12561751 for biotransformation under anaerobic condition. The drug concentrations were measured over 9 timepoints collected between 0 and 24 hours of incubation by liquid-chromatography-coupled mass spectrometry (LC–MS). As to conditions: 2 µM.

The conditions of data set [19]: human gut metagenome, 24 h, 2 µM. The source holds these as a separate data set.
For data set [20] the following is noted: human gut metagenome, 24 h, 2 µM. The source holds these as a separate data set.
Further: call rule not given here.

`CSc1ccc2c(c1)C(N1CCN(C)CC1)Cc1ccccc1S2.O=C(O)/C=C\C(=O)O` (configuration not stated): the “Bacterial Biotransformation” value in [1] is on record as “Compound NOT metabolized”; in data set [2], “Compound NOT metabolized”; in data set [3], “Compound metabolized”; in [4], “Compound metabolized”; in data set [5], “Compound metabolized”; in data set [6], “Compound NOT metabolized”. Moreover, the “Bacterial Biotransformation” value in [7] was “Compound NOT metabolized”; in data set [8], “Compound NOT metabolized”; in data set [9] it was “Compound NOT metabolized”; in [10], “Compound metabolized”; in data set [11] it was “Compound metabolized”; in data set [12], “Compound metabolized”. Further, the “Bacterial Biotransformation” value in data set [13] is recorded as “Compound NOT metabolized”; in [14], “Compound metabolized”; in [15], “Compound NOT metabolized”; in data set [16], “Compound NOT metabolized”; in data set [17] it was “Compound NOT metabolized”.
In the case of `CN1C[C@H](C(=O)N[C@]2(C)O[C@@]3(O)[C@@H]4CCCN4C(=O)[C@H](Cc4ccccc4)N3C2=O)C[C@@H]2c3cccc4[nH]cc(c34)C[C@H]21.CS(=O)(=O)O` [DIHYDROERGOTAMINE MESYLATE], the “Bacterial Biotransformation” value in data set [3], in [4], in data set [5], in data set [10] and in data set [12] was “Compound NOT metabolized” throughout.
For the compound `CCOC(=O)[C@H](CCc1ccccc1)N[C@@H](C)C(=O)N1CCC[C@H]1C(=O)O.O=C(O)/C=C\C(=O)O` [ENALAPRIL MALEATE], the “Bacterial Biotransformation” value in [1], in [2], in data set [4], in [5], in data set [6] and in [7] was “Compound NOT metabolized” throughout. In addition, the “Bacterial Biotransformation” value in data set [8] is given as “Compound NOT metabolized”; in [9] it was “Compound NOT metabolized”; in data set [18], “Compound NOT metabolized”; in data set [10], “Compound NOT metabolized”; in [11] it was “Compound NOT metabolized”; in [12], “Compound metabolized”. Besides, the “Bacterial Biotransformation” value in [19], in [13], in [14], in data set [15], in data set [20] and in data set [16] was “Compound NOT metabolized” each time. Also, the “Bacterial Biotransformation” value in data set [17] is reported as “Compound NOT metabolized”.
`CCc1cccc2c3c([nH]c12)C(CC)(CC(=O)O)OCC3` (configuration not stated) [ETODOLAC]: the “Bacterial Biotransformation” value was “Compound metabolized” in data set [1]; “Compound metabolized” in data set [2]; “Compound NOT metabolized” in [3]; “Compound NOT metabolized” in [4]; “Compound NOT metabolized” in data set [5]; “Compound metabolized” in [6]. Moreover, the “Bacterial Biotransformation” value in data set [7] is “Compound NOT metabolized”; in data set [8], “Compound metabolized”; in [9], “Compound metabolized”; in data set [10] it was “Compound NOT metabolized”; in data set [11], “Compound metabolized”; in data set [12], “Compound NOT metabolized”. For the same compound, the “Bacterial Biotransformation” value in [19] is given as “Compound NOT metabolized”; in [13], “Compound NOT metabolized”; in data set [14], “Compound metabolized”; in data set [15] it was “Compound metabolized”; in data set [20], “Compound metabolized”; in data set [16], “Compound metabolized”. Also, the “Bacterial Biotransformation” value in data set [17] is listed as “Compound metabolized”.
Turning to `CN1[C@@H]2CC[C@H]1C[C@@H](OC(=O)[C@H](CO)c1ccccc1)C2` [HYOSCYAMINE], the “Bacterial Biotransformation” value in data set [5] is listed as “Compound NOT metabolized”; in [7], “Compound NOT metabolized”; in [8] it was “Compound metabolized”; in data set [9], “Compound metabolized”; in data set [10], “Compound NOT metabolized”; in [11] it was “Compound metabolized”. Besides, the “Bacterial Biotransformation” value in data set [12] is recorded as “Compound NOT metabolized”; in data set [19] it was “Compound NOT metabolized”; in data set [14] it was “Compound metabolized”; in [16] it was “Compound NOT metabolized”; in [17], “Compound NOT metabolized”.
As to `Cc1ccc(NC(=O)c2ccc(CN3CCN(C)CC3)cc2)cc1Nc1nccc(-c2cccnc2)n1` [IMATINIB], the “Bacterial Biotransformation” value in data set [3], in [4], in data set [5] and in [10] was “Compound NOT metabolized” throughout.
In the case of `C#C[C@]1(OC(C)=O)CC[C@H]2[C@@H]3CCC4=CC(=O)CC[C@@H]4[C@H]3CC[C@@]21C` [NORETHINDRONE ACETATE], the “Bacterial Biotransformation” value in data set [2], in [4], in data set [6], in data set [7], in [8] and in [10] was “Compound metabolized” each time. The “Bacterial Biotransformation” value was “Compound NOT metabolized” in data set [11]; “Compound metabolized” in [12]; “Compound metabolized” in data set [19]; “Compound NOT metabolized” in [14]; “Compound metabolized” in data set [20]; “Compound metabolized” in data set [16]. Moreover, the “Bacterial Biotransformation” value in data set [17] was “Compound metabolized”.
As for `O=C1C(CC[S+]([O-])c2ccccc2)C(=O)N(c2ccccc2)N1c1ccccc1` (configuration not stated) [SULFINPYRAZONE], the “Bacterial Biotransformation” value in data set [1] was “Compound metabolized”; in data set [2], “Compound metabolized”; in data set [3], “Compound NOT metabolized”; in [5] it was “Compound NOT metabolized”; in data set [6] it was “Compound metabolized”; in [7], “Compound metabolized”. The “Bacterial Biotransformation” value in [8] is on record as “Compound metabolized”; in data set [9], “Compound metabolized”; in [18] it was “Compound metabolized”; in [10] it was “Compound NOT metabolized”; in [11] it was “Compound metabolized”; in [12], “Compound NOT metabolized”. The “Bacterial Biotransformation” value in [19], in data set [13], in [14], in [15], in data set [20] and in [16] was “Compound metabolized” in each case. For the same compound, the “Bacterial Biotransformation” value in data set [17] is on record as “Compound metabolized”.

These data come from ChEMBL document CHEMBL5724914, “Linking interpersonal differences in gut microbiota composition and drug biotransformation activity” (2024).
